Source: patent publication US20110230558A1 (priority 2008, published 2011)

Key:
[1] = test system: Enterobacter aerogenes CECT 689; conditions: Gram − bacteria; cited from earlier work
[2] = test system: Human epithelial cell lines (KB); assay: LPS-induced release of peptidases from human cell culture, fluorigenic substrate; format: cell-based; conditions: for Peptidase released: LAE 2 μg/ml; for Peptidase released / reduction of the toxicity of LPS (measured by fluorescence release): KB cells
Description: Human epithelial cell lines (KB) were obtained from American Cell type collection and grown in BGJ medium (Gibco, Buffalo, N.Y.) at 37° C. with 5% CO2. The medium was supplemented with 5% heated calf serum. Cells were placed in 24 well dishes with 0.5 ml medium per well. The release of peptidases from the human cell lines in response to LPS was measured by a coumarin based fluorigenic substrate utilized to study eukaryotic enzymes that degrade extracellular matrix proteins (collagen and fibronectin) and inactivated by inhibitors of matrix of metalloprotease (Yang et al. Abstract 105 at the 105th ASM general meeting).
The release of peptidase was measured by sensitive fluorescence test.

[3] = test system: Penicillium funiculosum CECT 2914; conditions: Fungi; cited from earlier work
[4] = test system: Staphylococcus aureus ATCC 6538; conditions: Gram + bacteria; cited from earlier work
[5] = test system: Lactobacillus delbrueckii ssp lactis CECT 372; conditions: Gram + bacteria; cited from earlier work
[6] = rats; cited from earlier work
[7] = test system: Klebsiella pneumoniae var pneumoniae CECT 178; conditions: Gram − bacteria; cited from earlier work
[8] = test system: Proteus mirabilis CECT 170; conditions: Gram − bacteria; cited from earlier work
S. typhimurium LPS = assay: Endotoxin deactivation as a function of LAE concentration, LAL assay; format: biochemical, Salmonella typhimurium; conditions: for CONCENTRATION Endotoxin: S. typhimurium LPS 10 μg/ml, 2 hours at 37° C., control without LAE 17000
Description: The 1 mg/ml stock solution of S. typhimurium LPS was prepared using the commercially available LPS obtained from the List Biological Laboratories, Inc. (cat #225). The 20 μg/ml solution of LPS was prepared by serially diluting the stock. All the LPS solutions were kept at refrigeration temperatures according to the instructions provided by the manufacturer.
The solutions of LAE prepared were used in the experiment. For the procedure, 500 μl of 20 μg/ml of endotoxins were mixed with 500 μl of LAE solution (10, 20, 40, 60 and 100 μg/ml) in glass reaction tubes, giving the final concentration of LPS, 10 μg/ml and the concentration range of LAE, 5-50 μg/ml. As a negative control, LPS was mixed with 1 mg/ml aqueous solution of propylene glycol. The mixture was incubated for 2 hours at 37° C. Each sample was serially diluted using the LAL reagent water to be assayed for the endotoxin activity.

[9] = test system: Escherichia coli ATCC 8739; conditions: Gram − bacteria; cited from earlier work
[10] = test system: Salmonella typhimurium ATCC 16028; conditions: Gram − bacteria; cited from earlier work
[11] = test system: Arthrobacter oxydans ATCC 8010; conditions: Gram + bacteria; cited from earlier work
[12] = test system: Clostridium perfringens ATCC 77454; conditions: Gram + bacteria; cited from earlier work
[13] = test system: Saccharomyces cerevisiae ATCC 9763; conditions: Yeast; cited from earlier work
[14] = test system: Leuconostoc mesenteroides CETC 912; conditions: Gram + bacteria; cited from earlier work
[15] = test system: Penicillium chrysogenum CECT 2802; conditions: Fungi; cited from earlier work
[16] = test system: Citrobacter freundii ATCC 22636; conditions: Gram − bacteria; cited from earlier work
[17] = test system: Pseudomonas aeruginosa ATCC 9027; conditions: Gram − bacteria; cited from earlier work
[18] = animals and humans; cited from earlier work
[19] = test system: Bacillus subtilis ATCC 6633; conditions: Gram + bacteria; cited from earlier work
[20] = test system: Aureobasidium pullulans ATCC 9348; conditions: Fungi; cited from earlier work
[21] = test system: Bacillus cereus var mycoide ATCC 11778; conditions: Gram + bacteria; cited from earlier work
[22] = test system: Gliocadium virens ATCC 4645; conditions: Fungi; cited from earlier work
[23] = test system: Listeria monocytogenes ATCC 7644; conditions: Gram + bacteria; cited from earlier work
[24] = test system: Aspergillus niger ATCC 14604; conditions: Fungi; cited from earlier work
[25] = test system: Serratia marcenses CECT 274; conditions: Gram − bacteria; cited from earlier work
[26] = test system: Rhodotorula rubra CECT 1158; conditions: Yeast; cited from earlier work
[27] = test system: Alcaligenes faecalis ATCC 8750; conditions: Gram − bacteria; cited from earlier work
[28] = test system: endotoxins produced by E. coli O113:H10; assay: Endotoxin deactivation by LAE, LAL assay (turbidimetric, pyrochrome); format: biochemical; conditions: E. coli O113:H10 endotoxin 12.5 μg/ml, incubated two hours at 37° C., control without LAE 120
Description: Turbidimetric LAL test was conducted according to the instructions provided by the manufacturer (Pyrotell-T, The associates of Cape Cod, Inc.). The standard curve was built based on 300, 30, 3, 0.3, 0.03 and 0.003 EU/ml. The same endotoxin in concentrations of 12.5 μg/ml was used in the experiment.
LAE was applied in concentrations of 0, 5, 10, 20, 30, 50 μg/ml to assess this compound's ability to deactivate endotoxins. LAL reagent water (LRW) was used to make all the endotoxin dilutions including the standards. MIRENAT-CF is a 10.5% solution of LAE in Propylene glycol, so the dilutions of MIRENAT-CF were initially made in propylene glycol, so that concentration of LAE was kept as the only variable. For the presumptive deactivation procedure, the endotoxin was incubated together with LAE for two hours at 37° C. The turbidimetric assay was conducted two times using the onset time for OD405=0.05. The pyrochrome assay was conducted once using the same template on plates.

[29] = test system: Candida albicans ATCC 10231; conditions: Yeast; cited from earlier work
[30] = test system: Micrococcus luteus ATCC 9631; conditions: Gram + bacteria; cited from earlier work
[31] = test system: Bordetella bronchiseptica ATCC 4617; conditions: Gram − bacteria; cited from earlier work
[32] = test system: Chaetonium globosum ATCC 6205; conditions: Fungi; cited from earlier work

ethyl ester of the lauramide of the arginine monohydrochloride [LAE]
M.I.C. [1]: 32 ppm | release of peptidase by LAE per se ([2]; 2 μg LAE/ml without LPS, similar to the blank): less than 300 units | peptidase response to LPS ([2]; LAE 2 μg/ml added to LPS, both doses of LPS tested (10 and 20 μg/ml)): significant reduction of peptidase response | Peptidase released ([2]; LPS 0 μg/ml, blank sample 400): 296 Fluorescence units | Peptidase released ([2]; LPS 10 μg/ml, LPS alone 900): 580 Fluorescence units | Peptidase released ([2]; LPS 20 μg/ml, LPS alone 1200): 655 Fluorescence units | reduction of the toxicity of LPS (measured by fluorescence release) ([2]; LPS 10 μg/ml pre-mixed with 2 μg/ml of LAE): 35.6% | reduction of the toxicity of LPS (measured by fluorescence release) ([2]; LPS 20 μg/ml pre-mixed with 2 μg/ml of LAE): 45.4% | M.I.C. [3]: 16 ppm | M.I.C. [4]: 32 ppm | M.I.C. [5]: 16 ppm | absorption and metabolism [6]: fast absorption and metabolisation into naturally-occurring amino acids and the fatty acid lauric acid | M.I.C. [7]: 32 ppm | M.I.C. [8]: 64 ppm | CONCENTRATION Endotoxin (S. typhimurium LPS; LAE 5 μg/ml (as MIRENAT-CF)): 4000 EU/ml × 10E3 | CONCENTRATION Endotoxin (S. typhimurium LPS; LAE 10 μg/ml (as MIRENAT-CF)): 3995 EU/ml × 10E3 | CONCENTRATION Endotoxin (S. typhimurium LPS; LAE 20 μg/ml (as MIRENAT-CF)): 3000 EU/ml × 10E3 | CONCENTRATION Endotoxin (S. typhimurium LPS; LAE 30 μg/ml (as MIRENAT-CF)): 4000 EU/ml × 10E3 | CONCENTRATION Endotoxin (S. typhimurium LPS; LAE 50 μg/ml (as MIRENAT-CF)): 2500 EU/ml × 10E3 | dose response of the deactivation effect (S. typhimurium LPS; LAE concentration range 5-50 μg/ml): does not follow a dose response | effect on the activity of S. typhimurium endotoxins (S. typhimurium LPS; LAE in concentrations of 5-50 μg/ml): significantly decreased | M.I.C. [9]: 32 ppm | M.I.C. [10]: 32 ppm | M.I.C. [11]: 64 ppm | M.I.C. [12]: 16 ppm | M.I.C. [13]: 32 ppm | M.I.C. [14]: 32 ppm | M.I.C. [15]: 128 ppm | M.I.C. [16]: 64 ppm | M.I.C. [17]: 32 ppm | toxicity [18]: completely harmless to animals and humans | M.I.C. [19]: 16 ppm | M.I.C. [20]: 16 ppm | M.I.C. [21]: 32 ppm | M.I.C. [22]: 32 ppm | M.I.C. [23]: 10 ppm | M.I.C. [24]: 32 ppm | M.I.C. [25]: 2 ppm | M.I.C. [26]: 16 ppm | M.I.C. [27]: 64 ppm | CONCENTRATION Endotoxin ([28]; LAE 10 μg/ml): 80 EU/ml × 10E3 | CONCENTRATION Endotoxin ([28]; LAE 50 μg/ml): 61 EU/ml × 10E3 | M.I.C. [29]: 16 ppm | M.I.C. [30]: 128 ppm | M.I.C. [31]: 128 ppm | M.I.C. [32]: 16 ppm
